Experimental data published in ChEMBL document CHEMBL1134929, “Synthesis and biological activity of potent heterocyclic thiol-based inhibitors of endothelin-converting enzyme-1” (Bioorg Med Chem Lett, 2002).
Values belong to the compound of their own block, whether it stands above or below them.

Assays:
[1] = molecular target: T1, Endothelin-converting enzyme 1 (Homo sapiens, UniProt P42892); assay: In vitro inhibition of Endothelin-converting enzyme 1.
T1 sequence (P42892 whole entry): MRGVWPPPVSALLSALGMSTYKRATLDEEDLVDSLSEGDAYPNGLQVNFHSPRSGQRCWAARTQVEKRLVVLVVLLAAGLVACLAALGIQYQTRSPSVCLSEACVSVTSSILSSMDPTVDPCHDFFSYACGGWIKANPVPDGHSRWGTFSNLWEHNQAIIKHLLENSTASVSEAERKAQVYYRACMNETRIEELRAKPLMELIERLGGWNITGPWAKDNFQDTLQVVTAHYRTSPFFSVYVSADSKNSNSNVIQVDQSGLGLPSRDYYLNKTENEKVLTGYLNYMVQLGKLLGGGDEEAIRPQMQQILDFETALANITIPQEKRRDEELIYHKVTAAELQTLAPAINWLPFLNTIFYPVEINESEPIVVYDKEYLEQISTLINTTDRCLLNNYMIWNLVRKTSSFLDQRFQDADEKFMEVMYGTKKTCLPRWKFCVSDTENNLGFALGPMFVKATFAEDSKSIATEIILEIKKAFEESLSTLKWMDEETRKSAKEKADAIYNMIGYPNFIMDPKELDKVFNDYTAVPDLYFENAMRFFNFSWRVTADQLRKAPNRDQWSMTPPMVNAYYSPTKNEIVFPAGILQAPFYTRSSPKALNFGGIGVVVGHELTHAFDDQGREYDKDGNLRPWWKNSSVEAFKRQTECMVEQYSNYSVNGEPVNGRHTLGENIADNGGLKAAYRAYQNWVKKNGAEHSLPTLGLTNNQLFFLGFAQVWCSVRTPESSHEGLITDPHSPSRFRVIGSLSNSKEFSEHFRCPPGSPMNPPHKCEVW

Rattus norvegicus [2] = assay: Compound was evaluated for its ability to inhibit Endothelin 1 induced increase in mean arterial pressure (MAP) after 15 min of dosing (20 mg/kg) in rats.; type: functional, Artery
Rattus norvegicus [3] = assay: Compound was evaluated for its ability to inhibit the Endothelin 1 induced pressor response in anesthetized rats intravenous administration of 10 mg/kg; type: functional
Rattus norvegicus [4] = assay: Compound was evaluated for its ability to inhibit the Endothelin 1 induced pressor response in anesthetized rats iupon oral administration of 3 mg/kg at 4 hr post dosing; type: functional
Rattus norvegicus [5] = assay: Compound was evaluated for its ability to inhibit the Endothelin 1 induced pressor response in anesthetized rats upon oral administration of 3 mg/kg at 0.5 hr post dosing; type: functional
Rattus norvegicus [6] = assay: Compound was evaluated for its ability to inhibit the Endothelin 1 induced pressor response in anesthetized rats upon oral administration of 3 mg/kg at 2 hr post dosing; type: functional
Rattus norvegicus [7] = assay: Compound was evaluated for its ability to inhibit the Endothelin 1 induced pressor response in anesthetized rats upon oral administration of 3 mg/kg at 8 hr post dosing; type: functional
Rattus norvegicus [8] = assay: Compound was evaluated for its ability to inhibit the Endothelin 1 induced pressor response in rats upon oral administration of 3-30 mg/kg at 2 hr post dosing; type: functional

IC50 [1]: 39 nM
Compound: CC(C)[C@H](S)C(=O)NC1(C(=O)NC(Cc2ccc(-c3ccoc3)nc2)C(=O)O)CCCC1 (stereo partly specified)

IC50 [1]: 64 nM
Compound: CC(C)[C@H](S)C(=O)NC1(C(=O)NC(Cc2ccc(-c3cccc(N)c3)nc2)C(=O)O)CCCC1 (stereo partly specified)

IC50 [1]: 9.5 nM
Compound: CC(C)C[C@H](S)C(=O)NC1(C(=O)N[C@@H](Cc2ccc(-c3cccs3)nc2)C(=O)O)CCCC1
Increase in MAP (Rattus norvegicus [2]): 77%
inhibition in vivo at 10 mg/kg (Rattus norvegicus [3]): 61%

Compound: CC(C)[C@H](S)C(=O)NC1(C(=O)N[C@@H](Cc2ccc(-c3ccccc3)cc2)C(=O)O)CCCC1
inhibition in vivo at 10 mg/kg (Rattus norvegicus [3]): 40%

Compound: COC(=O)[C@H](Cc1ccc(-c2cccs2)nc1)NC(=O)C1(NC(=O)[C@H](CC(C)C)SC(C)=O)CCCC1
inhibition in vivo at 3 mg/kg (Rattus norvegicus [4]): 70%
inhibition in vivo at 3 mg/kg (Rattus norvegicus [5]): 90%
inhibition in vivo at 3 mg/kg (Rattus norvegicus [6]): 82%
inhibition in vivo at 3 mg/kg (Rattus norvegicus [7]): 34%
Inhibition (Rattus norvegicus [8]): 65%
